From patent US10047105B2, “Gyrase inhibitors” (Merck Sharp & Dohme Corp., priority 2009, dated 2018) come the findings set out here.

Structures are written as SMILES. In brackets after ≈: the same amount, converted by molar mass.

Common to all, as to type: cell-based
One experiment relates to S. aureus ATCC 13709. The experiment can be described thus: MIC, antibacterial potency, S. aureus. The note with it: S. aureus (SA); in µg/mL.
The subject of another experiment is E. coli 8 ATCC 25922. The experiment can be described thus: MIC, E. coli 8 (wt). The note with it: E. coli 8 (EC8).
A further experiment deals with S. pneumoniae ATCC 51916. The experiment can be described thus: MIC, S. pneumoniae. Particulars: S. pneumoniae (Spn52); in µg/mL.

As for `CCc1[nH]c2nc(Sc3ccc4[nH]c(C(F)(F)F)cc(=O)c4c3)nc(N3CC[C@@H](N)C3)c2c1Cl` [700,918], the “MIC, SA” value against S. aureus ATCC 13709 is 2. This compound also had an MIC EC8 against E. coli 8 ATCC 25922 of over 64 µg/mL. Moreover, in the experiment with S. pneumoniae ATCC 51916, the “MIC Spn52” value is 8.
As to `CCc1[nH]c2nc(Sc3ccc4[nH]cc(C#N)c(=O)c4c3)nc(N3CC[C@@H](N)C3)c2c1Cl` [700,919], the “MIC, SA” value against S. aureus ATCC 13709 is over 64. The same compound returned an MIC EC8 against E. coli 8 ATCC 25922 of over 64 µg/mL. Moreover, in the experiment with S. pneumoniae ATCC 51916, the “MIC Spn52” value is on record as over 64.
As to `CCc1[nH]c2nc(Sc3ccc4[nH]cc(C(=O)O)c(=O)c4c3)nc(N3CC[C@@H](N)C3)c2c1Cl` [700,920], in the experiment on S. aureus ATCC 13709, the “MIC, SA” value was over 64. Besides, the MIC EC8 with E. coli 8 ATCC 25922 was over 64 µg/mL. Besides, the “MIC Spn52” value against S. pneumoniae ATCC 51916 is recorded as over 64.
For the compound `CCc1[nH]c2nc(Sc3cnc4cccnc4c3)nc(N3CCC(NCCN)C3)c2c1Cl` (stereo not drawn) [700,921], the “MIC, SA” value against S. aureus ATCC 13709 is given as 2. In the experiment with E. coli 8 ATCC 25922, this compound had an MIC EC8 of over 64 µg/mL. Besides, the “MIC Spn52” value in the experiment with S. pneumoniae ATCC 51916 was 4.
For `CCc1[nH]c2nc(Sc3ccc4c(N5CC(CN)C5)nc(C)nc4c3)nc(N3CC[C@@H](N)C3)c2c1Cl` [700,922] the same measures were 32, 4 µg/mL (≈ 7.63 µM) and 64.
The corresponding values for `CCc1[nH]c2nc(Sc3cnc4c(=N)n(CCCN(C)C)c(C)nc4c3)nc(N3CC[C@@H](N)C3)c2c1Cl` [700,923] are 16, 64 µg/mL (≈ 118 µM) and 8.
For `CCc1[nH]c2nc(Sc3cnc4c(=N)n(CCN(C)C)c(C)nc4c3)nc(N3CC[C@@H](N)C3)c2c1Cl` [700,924] the same measures were 16, 64 µg/mL (≈ 121 µM) and 4.
As to `CCOC(=O)/C=C/c1ccc(Sc2nc(N3CC[C@@H](N)C3)c3c(Cl)c(CC)[nH]c3n2)cc1F` [700,925], in the experiment on S. aureus ATCC 13709, the “MIC, SA” value amounted to 4. The compound also yielded an MIC EC8 in the experiment with E. coli 8 ATCC 25922 of over 64 µg/mL. Also, in the experiment on S. pneumoniae ATCC 51916, the “MIC Spn52” value was found to be 32.
For `CCc1[nH]c2nc(Oc3cncc(C#N)c3)nc(Cc3cccc(C#N)c3)c2c1Cl` [700,927] the same measures were “<=0.5”, over 64 µg/mL and 1.
Regarding `CCc1[nH]c2nc(Sc3ccc4c(c3)c(=O)c(C#N)cn4CCN(C)C)nc(N3CC[C@@H](N)C3)c2c1Cl` [700,928], the “MIC, SA” value with S. aureus ATCC 13709 came to 2. The same compound yielded an MIC EC8 in the experiment on E. coli 8 ATCC 25922 of 16 µg/mL (≈ 29.8 µM). In addition, the “MIC Spn52” value in the experiment on S. pneumoniae ATCC 51916 is given as 8.
As to `CCc1[nH]c2nc(Sc3ccc4c(c3)c(=O)c(C#N)cn4CCCN(C)C)nc(N3CC[C@@H](N)C3)c2c1Cl` [700,929], in the experiment on S. aureus ATCC 13709, the “MIC, SA” value is 16. Besides, the MIC EC8 with E. coli 8 ATCC 25922 is 32 µg/mL (≈ 58.1 µM). Also, the “MIC Spn52” value against S. pneumoniae ATCC 51916 amounted to 64.
On to `CCc1[nH]c2nc(Oc3cccc(C#N)c3)nc(C(C)O)c2c1Cl` (stereo not drawn) [700,930], for which the “MIC, SA” value in the experiment with S. aureus ATCC 13709 amounted to 8. This compound registered an MIC EC8 against E. coli 8 ATCC 25922 of over 64 µg/mL. Also, the “MIC Spn52” value in the experiment on S. pneumoniae ATCC 51916 came out at 16.
The corresponding values for `CCc1[nH]c2nc(Oc3cncc(C(=O)O)c3)nc(Oc3cncnc3)c2c1Cl` [700,932] are over 64, over 64 µg/mL and over 64.
Turning to `CCc1[nH]c2nc(Oc3cncc(C#N)c3)nc(Oc3cc(C#N)cc(OC)c3)c2c1Br` [700,933], the “MIC, SA” value in the experiment with S. aureus ATCC 13709 turned out to be 2. The MIC EC8 with E. coli 8 ATCC 25922 was over 64 µg/mL. In addition, the “MIC Spn52” value against S. pneumoniae ATCC 51916 came to 4.
For `CCc1[nH]c2nc(Oc3cncc(OC)c3)nc(N3CC(O)C3)c2c1Cl` [700,934], the “MIC, SA” value in the experiment with S. aureus ATCC 13709 turned out to be 4. This compound registered an MIC EC8 against E. coli 8 ATCC 25922 of over 64 µg/mL. For the same compound, the “MIC Spn52” value against S. pneumoniae ATCC 51916 turned out to be 16.
`CCc1[nH]c2nc(Oc3cnc4ccoc4c3)nc(N3CC(N)C3)c2c1Br` [700,935]: the “MIC, SA” value against S. aureus ATCC 13709 was 2. Also, the MIC EC8 against E. coli 8 ATCC 25922 is over 64 µg/mL. Also, the “MIC Spn52” value in the experiment with S. pneumoniae ATCC 51916 was found to be 32.
With `CCc1[nH]c2nc(Oc3cnc4ccoc4c3)nc(N3CC4CNC4C3)c2c1Cl` (stereo not drawn) [700,936], the “MIC, SA” value in the experiment on S. aureus ATCC 13709 turned out to be 64. Further, the MIC EC8 against E. coli 8 ATCC 25922 is over 64 µg/mL. Further, the “MIC Spn52” value against S. pneumoniae ATCC 51916 turned out to be 32.
With `CCc1[nH]c2nc(Oc3cncc(OC)c3)nc(Oc3cncc(OC)c3)c2c1Br` [700,937], the “MIC, SA” value against S. aureus ATCC 13709 is “<=0.5”. The MIC EC8 with E. coli 8 ATCC 25922 is over 64 µg/mL. Moreover, in the experiment with S. pneumoniae ATCC 51916, the “MIC Spn52” value came to 1.
For `CCc1[nH]c2nc(Oc3ccc4nccnc4c3)nc(Oc3ccc4nccnc4c3)c2c1Br` [700,938], the “MIC, SA” value with S. aureus ATCC 13709 was “<=0.5”. In the experiment with E. coli 8 ATCC 25922, this compound registered an MIC EC8 of over 64 µg/mL. In addition, the “MIC Spn52” value with S. pneumoniae ATCC 51916 is “<=0.5”.
Take `CCc1[nH]c2nc(Oc3cnc4c(c3)ncn4C)nc(Oc3cnc4c(c3)ncn4C)c2c1Br` [700,939]: the “MIC, SA” value in the experiment on S. aureus ATCC 13709 was “<=0.5”. The compound further returned an MIC EC8 in the experiment with E. coli 8 ATCC 25922 of over 64 µg/mL. In addition, the “MIC Spn52” value against S. pneumoniae ATCC 51916 was found to be 1.
For `CCc1[nH]c2nc(Sc3ccc4cc5c([n+]([O-])c4c3)CCNC5)nc(N3CC[C@@H](N)C3)c2c1Cl` [700,940] the same measures were 2, 8 µg/mL (≈ 16.1 µM) and 8.
The corresponding values for `CCc1[nH]c2nc(Oc3cncnc3)nc(N3CC4CNC4C3)c2c1Cl` (stereo not drawn) [700,941] are 4, over 64 µg/mL and 8.
Turning to `CCc1[nH]c2nc(Sc3ccc4c(N5CC(N)C5)ncnc4c3)nc(N3CC[C@@H](N)C3)c2c1Cl` [700,942], in the experiment on S. aureus ATCC 13709, the “MIC, SA” value was found to be 16. This compound showed an MIC EC8 against E. coli 8 ATCC 25922 of 8 µg/mL (≈ 16.1 µM). In addition, the “MIC Spn52” value with S. pneumoniae ATCC 51916 came out at 16.
In the case of `CCc1[nH]c2nc(Sc3cnc4c(=N)n(CCCN5CCC(N)C5)c(C)nc4c3)nc(N3CC[C@@H](N)C3)c2c1Cl` (stereo partly drawn) [700,943], in the experiment on S. aureus ATCC 13709, the “MIC, SA” value stood at 32. The compound further showed an MIC EC8 against E. coli 8 ATCC 25922 of 64 µg/mL (≈ 110 µM). The “MIC Spn52” value with S. pneumoniae ATCC 51916 is listed as 32.
As to `CCc1[nH]c2nc(Oc3ccc4c(N5CC(N)C5)ncnc4c3)nc(Oc3cccc(C#N)c3)c2c1Br` [700,944], the “MIC, SA” value in the experiment on S. aureus ATCC 13709 was 8. In the experiment on E. coli 8 ATCC 25922, this compound came in with an MIC EC8 of over 64 µg/mL. Also, in the experiment with S. pneumoniae ATCC 51916, the “MIC Spn52” value is recorded as 8.
Regarding `CCc1[nH]c2nc(Oc3cncc(C#N)c3)nc(Oc3cncc(OC)c3)c2c1Br` [700,945], the “MIC, SA” value in the experiment with S. aureus ATCC 13709 was “<=0.5”. The compound further had an MIC EC8 with E. coli 8 ATCC 25922 of over 64 µg/mL. Further, the “MIC Spn52” value in the experiment on S. pneumoniae ATCC 51916 is “<=0.5”.
In the case of `CCc1[nH]c2nc(Oc3cccc(C#N)c3)nc(C(C)N)c2c1Cl` (stereo not drawn) [700,946], the “MIC, SA” value in the experiment with S. aureus ATCC 13709 is recorded as over 64. The compound also yielded an MIC EC8 against E. coli 8 ATCC 25922 of over 64 µg/mL. For the same compound, in the experiment on S. pneumoniae ATCC 51916, the “MIC Spn52” value is over 64.
Turning to `CC(=O)c1nc(Oc2cccc(C#N)c2)nc2[nH]c(C(C)O)c(Cl)c12` (stereo not drawn) [700,947], the “MIC, SA” value against S. aureus ATCC 13709 was over 64. The MIC EC8 against E. coli 8 ATCC 25922 is over 64 µg/mL. Also, the “MIC Spn52” value in the experiment on S. pneumoniae ATCC 51916 is given as 64.
The corresponding values for `CCc1[nH]c2nc(Oc3ccc4nccnc4c3)nc(N3CC(O)C3)c2c1Cl` [700,948] are “<=0.5”, over 16 µg/mL and 4.
Regarding `CCc1[nH]c2nc(Oc3ccc4sc(C)nc4c3)nc(Oc3cccc(C#N)c3)c2c1Br` [700,949], the “MIC, SA” value in the experiment on S. aureus ATCC 13709 is listed as “<=0.5”. Further, the MIC EC8 against E. coli 8 ATCC 25922 was over 64 µg/mL. Besides, the “MIC Spn52” value against S. pneumoniae ATCC 51916 is given as 4.
In the case of `CCc1[nH]c2nc(Oc3cccc(C#N)c3)nc(C(C)N3CCC(N)C3)c2c1Cl` (stereo not drawn) [700,950], the “MIC, SA” value in the experiment with S. aureus ATCC 13709 is over 64. The MIC EC8 against E. coli 8 ATCC 25922 is over 64 µg/mL. Further, the “MIC Spn52” value in the experiment with S. pneumoniae ATCC 51916 was over 64.
`CCc1[nH]c2nc(Oc3cccc(C#N)c3)nc(C(C)N3CC4C(N)C4C3)c2c1Cl` (stereo not drawn) [700,951]: the “MIC, SA” value in the experiment with S. aureus ATCC 13709 is given as over 16. In the experiment with E. coli 8 ATCC 25922, this compound returned an MIC EC8 of over 16 µg/mL. Moreover, the “MIC Spn52” value in the experiment with S. pneumoniae ATCC 51916 was over 16.
Regarding `CCc1[nH]c2nc(Oc3cccc(C#N)c3)nc(C(C)N3CC4C(C3)C4(N)C(N)=O)c2c1Cl` (stereo not drawn) [700,952], in the experiment on S. aureus ATCC 13709, the “MIC, SA” value stood at 64. Also, the MIC EC8 against E. coli 8 ATCC 25922 is over 64 µg/mL. In the experiment on S. pneumoniae ATCC 51916, the “MIC Spn52” value turned out to be 64.
